Measured values published in patent publication US20230330093A1, “APPLICATION OF NITROGEN-CONTAINING SATURATED HETEROCYCLIC COMPOUND” (SHANGHAI PHARMACEUTICALS HOLDING CO., LTD., priority 2020, published 2023).
“And” between values parts separate entries of the source, which are not always exact repeats. Identical values can stand only once.

Test system: rhesus monkeys with spontaneous chronic kidney disease
Assay: Effect on serum K+, 8-week administration
Conditions: 5mg/kg (n = 6)
Method: In the trial, animals were brought in three stages. In the first stage, there were two groups: 3 animals (No. 257, No. 4721, No. 287) in a group with 5 mg/kg of the malate of compound of formula I, and 2 animals (No. 1029, No. 4713) in the placebo group. […] In the third stage, there were two groups: 5 animals (No. 4829, No. 6501, No. 287, No. 4721, No. 2091) in a group with 2 mg/kg of the malate of compound of formula I, and 5 animals (No. 1567, No. 4861, No. 5453, No. 6653, No. 5073) in a group with 1 mg/kg of the malate of compound of formula I.
Serum potassium, twice before administration, once every 2 weeks during the administration period;
Blood biochemical and urine index detection equipment: Roche cobas6000 analyzer series C501 module detection. ELISA kit was used for NT-proBNP test.

K^+ (2 weeks, Mean ± SD): 4.98 ± 0.73 mmol/L
K^+ (4 weeks, Mean ± SD): 4.49 ± 0.62 mmol/L
K^+ (6 weeks, Mean ± SD): 4.57 ± 0.66 mmol/L
K^+ (8 weeks, Mean ± SD): 4.49 ± 0.70 mmol/L
K^+ (Baseline 1, Mean ± SD): 4.89 ± 0.35 mmol/L
K^+ (Baseline 2, Mean ± SD): 4.81 ± 0.48 mmol/L
Structure (SMILES): COC(=O)NCCCn1nc(C(C)N(C(=O)C2CNCCO2)C2CC2)c2ccc(C)nc21.O=C(O)CC(O)C(=O)O (stereo not drawn) [malate of compound of Formula 1]
K^+ (2 weeks, individual animals): 4.91 mmol/L and 4.55 mmol/L and 6.07 mmol/L and 5.37 mmol/L and 5.05 mmol/L and 3.93 mmol/L
K^+ (4 weeks, individual animals): 4.33 mmol/L and 4.55 mmol/L and 5.46 mmol/L and 4.50 mmol/L and 4.61 mmol/L and 3.51 mmol/L
K^+ (6 weeks, individual animals): 4.53 mmol/L and 4.16 mmol/L and 4.77 mmol/L and 4.76 mmol/L and 5.58 mmol/L and 3.60 mmol/L
K^+ (8 weeks, individual animals): 4.26 mmol/L and 4.64 mmol/L and 4.49 mmol/L and 5.28 mmol/L and 5.00 mmol/L and 3.26 mmol/L
K^+ (Baseline 1, individual animals): 4.78 mmol/L and 4.54 mmol/L and 4.93 mmol/L and 5.41 mmol/L and 5.16 mmol/L and 4.52 mmol/L
K^+ (Baseline 2, individual animals): 5.43 mmol/L and 4.74 mmol/L and 4.03 mmol/L and 5.20 mmol/L and 4.75 mmol/L and 4.72 mmol/L
